In US4670435A, “10,11-dihydro-5H-dibenzo[a,d]cycloheptadiene derivatives in a method for treating cardiac arrhythmia” (priority 1984, dated 1987):
Counter-ions that a name gives are not always drawn.

Key:
arrhythmias = assay: Antiarrhythmic action, aconitine infusion, rat, oral administration; assay type: in vivo, Sprague-Dawley rats; settings: for ED50: Rattus norvegicus, po, read-out: ED 50% (dose which prolongs the aconitine infusion duration by 50%)
Experimental: (§1) The substances were administered orally to Sprague-Dawley rats weighing 200-250 g. 45 minutes thereafter, the animals were anesthetized with 100 mg/kg of thiobutabarbital Na, administered intraperitoneally. Aconitine, as an arrhythmogenic substance, was infused intravenously into the jugular vein 60 minutes after administration of the substance (dosage rate: 0.005 mg per kg per min). In the case of untreated animals (N=52), arrhythmias appeared in the ECG after 2.74±0.07 minutes, the appearance of these arrhythmias being delayed by antiarrhythmic agents in a dose-dependent manner.
(§2) The dose which prolongs the duration of aconitine infusion by 50%, ie. the ED 50%, was determined from the linear relationship between log dose (mg/kg) of the test substances and the relative prolongation of aconitine infusion duration (Δ%).

[1] = Therapeutic index: quotient of acute toxic dose to antiarrhythmic ED 50%; parameters: species or system Sprague-Dawley rats; settings: in vivo; Table 2; rat, oral administration; measure of therapeutic index; read-out: Q (quotient of acute toxic dose to antiarrhythmic ED 50%)
Experimental: as §1, §2
(§3) Furthermore, the dose at which toxic symptoms (change in the initial ECG, cyanosis or cramp) occur was determined from the geometric progression of doses (factor 2.154) used in the experiments.
The quotient of acute toxic dose to antiarrhythmic ED 50% was determined as a measure of the therapeutic index of the novel compounds.

[2] = Acute toxicity: dose at which first toxic symptoms (change in initial ECG, cyanosis or cramp) occur, rat, oral; assay type: in vivo, Sprague-Dawley rats; settings: Table 2, oral administration, geometric progression of doses (factor 2.154)
Experimental: as §1, §3

Row | SMILES | ED50 (arrhythmias) [mg/kg] | selectivity ratio [1] | Toxic dose (dose at which the first toxic symptoms are observed) [2] [mg/kg] | ED 50% (dose which prolongs the aconitine infusion duration by 50%) (arrhythmias; Table 2, rat, oral administration, 60 minutes before aconitine i.v. infusion 0.005 mg per kg per min) [mg/kg]
1 | CC(C)NCC(C)(O)CC1c2ccccc2CCc2ccccc21 (stereo not shown) [Example 1, N-[2-hydroxy-2-methyl-3-(10,11-dihydro-5H-dibenzocycloheptadienyl)-propyl]-N-isopropylamine hydrochloride] | 6.51 |  |  | 
2 | CNCC(C)(O)CC1c2ccccc2CCc2ccccc21 (stereo not shown) [Example 3] | 3.11 | 32 | 100 | 
3 | CC(O)(CNC(C)(C)C)CC1c2ccccc2CCc2ccccc21 (stereo not shown) [Example 4] | 6.47 | 33 | 215 | 
4 | CCCNCC(C)(O)CC1c2ccccc2CCc2ccccc21 (stereo not shown) [Example 5] | 7.78 |  |  | 
5 | COCC(C)NCC(C)(O)CC1c2ccccc2CCc2ccccc21 (stereo not shown) [Example 6] | 6.83 |  |  | 
6 | CC(O)(CC1c2ccccc2CCc2ccccc21)CN1CCC(O)(c2ccccc2)CC1 (stereo not shown) [Example 9] | 2.57 |  |  | 
7 | C=C[C@H]1C[N@@]2CC[C@H]1C[C@@H]2[C@@H](O)c1ccnc2ccc(OC)cc12 [Quinidine, quinidine, reference compound] |  | 11 | 464 | 43.5
